We go through twelve compounds from patent US20240165139A1, “GALACTOPYRANOSYL-CYCLOHEXYL DERIVATIVES AS E-SELECTIN ANTAGONISTS” (GLYCOMIMETICS, INC., priority 2017, published 2024).

Broadly, the IC50 is the point on the concentration scale where inhibition reaches its midpoint. Read a high IC50 as weaker potency.

Sequence of E-selectin (P16581 22-610 limits assumed): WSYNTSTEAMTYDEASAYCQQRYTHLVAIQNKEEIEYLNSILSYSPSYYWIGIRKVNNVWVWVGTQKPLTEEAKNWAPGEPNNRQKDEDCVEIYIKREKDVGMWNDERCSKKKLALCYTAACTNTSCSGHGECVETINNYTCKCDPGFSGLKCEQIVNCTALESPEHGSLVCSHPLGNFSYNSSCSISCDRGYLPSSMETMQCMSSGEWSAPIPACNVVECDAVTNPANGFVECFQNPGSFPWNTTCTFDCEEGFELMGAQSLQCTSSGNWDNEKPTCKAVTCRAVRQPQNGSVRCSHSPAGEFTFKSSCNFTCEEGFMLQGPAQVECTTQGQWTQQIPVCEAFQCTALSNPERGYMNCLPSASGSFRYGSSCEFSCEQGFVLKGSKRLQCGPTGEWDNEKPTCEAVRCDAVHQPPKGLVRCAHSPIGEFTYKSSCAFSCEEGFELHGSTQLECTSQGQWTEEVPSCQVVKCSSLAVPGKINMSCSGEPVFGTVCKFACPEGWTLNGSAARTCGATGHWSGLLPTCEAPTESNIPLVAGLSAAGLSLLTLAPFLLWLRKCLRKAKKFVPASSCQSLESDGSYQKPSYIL

The experiment deals with E-selectin (Homo sapiens, UniProt P16581). The experiment is described as follows: E-Selectin Activity - competitive binding assay (sLe^a polyacrylamide conjugate vs immobilized E-selectin/Ig chimera). As to conditions: concentration required to inhibit binding of sLe^a conjugate to immobilized E-selectin/Ig chimera by 50%. Here is the method:
The inhibition assay to screen for and characterize glycomimetic antagonists of E-selectin is a competitive binding assay, which allows the determination of IC50 values. E-selectin/Ig chimera was immobilized in 96 well microtiter plates by incubation at 37° C. for 2 hours. To reduce nonspecific binding, bovine serum albumin was added to each well and incubated at room temperature for 2 hours. The plate was washed and serial dilutions of the test compounds were added to the wells in the presence of conjugates of biotinylated, sLe^a polyacrylamide with streptavidin/horseradish peroxidase and incubated for 2 hours at room temperature.
To determine the amount of sLe^a bound to immobilized E-selectin after washing, the peroxidase substrate, 3,3′,5,5′ tetramethylbenzidine (TMB) was added. After 3 minutes, the enzyme reaction was stopped by the addition of H3PO4, and the absorbance of light at a wavelength of 450 nm was determined.
`CCC1CC(C(=O)NCCNC(=O)c2cn(CC(CO)(COS(=O)(=O)O)COS(=O)(=O)O)nn2)C[C@@H](O[C@@H]2O[C@@H](CO)[C@H](O)C(O[C@@H](CC3CCCCC3)C(=O)N3CCC3)C2NC(C)=O)[C@@H]1O[C@@H]1OC(C)[C@@H](O)[C@H](O)C1O` (stereo partly drawn) [Compound 18] gave a half-maximal inhibitory concentration (IC50) of 170 nM. That is a sub-micromolar value.

`CCC1CC(C(=O)NCCNC(=O)c2cn(CCCOS(=O)(=O)O)nn2)C[C@@H](O[C@@H]2O[C@@H](CO)[C@H](O)C(O[C@@H](CC3CCCCC3)C(=O)N3CCC3)C2NC(C)=O)[C@@H]1O[C@@H]1OC(C)[C@@H](O)[C@H](O)C1O` (stereo partly drawn) [Compound 19] came in with an IC50 of 580 nM.

The compound `CCC1CC(C(=O)NCCNC(=O)c2cn(CC(CO)(CO)CO)nn2)C[C@@H](O[C@@H]2O[C@@H](CO)[C@H](O)C(O[C@@H](CC3CCCCC3)C(=O)N3CCC3)C2NC(C)=O)[C@@H]1O[C@@H]1OC(C)[C@@H](O)[C@H](O)C1O` (stereo partly drawn) [Compound 20] had an IC50 of 240 nM. This IC50 lies about 2.4-fold lower than the previous one.

`CCC1CC(C(=O)NCCNC(=O)c2cn(CCCO)nn2)C[C@@H](O[C@@H]2O[C@@H](CO)[C@H](O)C(O[C@@H](CC3CCCCC3)C(=O)N3CCC3)C2NC(C)=O)[C@@H]1O[C@@H]1OC(C)[C@@H](O)[C@H](O)C1O` (stereo partly drawn) [Compound 21] yielded an IC50 of 520 nM.

`CCC1CC(C(=O)NCCNC(=O)[C@@H](OS(=O)(=O)O)[C@@H](COS(=O)(=O)O)OS(=O)(=O)O)C[C@@H](O[C@@H]2O[C@@H](CO)[C@H](O)C(O[C@@H](CC3CCCCC3)C(=O)O)C2NC(C)=O)[C@@H]1O[C@@H]1OC(C)[C@@H](O)[C@H](O)C1O` (stereo partly drawn) [Compound 24] registered an IC50 of 190 nM. This IC50 is about 2.7-fold lower than that of the compound before.

For `CCC1CC(C(=O)NCCNC(=O)[C@@H](OS(=O)(=O)O)[C@H](COS(=O)(=O)O)OS(=O)(=O)O)C[C@@H](O[C@@H]2O[C@@H](CO)[C@H](O)C(O[C@@H](CC3CCCCC3)C(=O)O)C2NC(C)=O)[C@@H]1O[C@@H]1OC(C)[C@@H](O)[C@H](O)C1O` (stereo partly drawn) [Compound 25], the IC50 came out at 660 nM. This IC50 is about 3.5-fold higher than that of the compound before.

On to `CCC1CC(C(=O)NCCNC(=O)CC(C)S(=O)(=O)O)C[C@@H](O[C@@H]2O[C@@H](CO)[C@H](O)C(O[C@@H](CC3CCCCC3)C(=O)O)C2NC(C)=O)[C@@H]1O[C@@H]1OC(C)[C@@H](O)[C@H](O)C1O` (stereo partly drawn) [Compound 30], for which the IC50 was 2780 nM.

Compound `CCC1CC(C(=O)NCCNC(=O)CC(CS(=O)(=O)O)S(=O)(=O)O)C[C@@H](O[C@@H]2O[C@@H](CO)[C@H](O)C(O[C@@H](CC3CCCCC3)C(=O)O)C2NC(C)=O)[C@@H]1O[C@@H]1OC(C)[C@@H](O)[C@H](O)C1O` (stereo partly drawn) [Compound 31] showed an IC50 of 2360 nM.

With `CCC1CC(C(=O)NCCNC(=O)CCCS(=O)(=O)O)C[C@@H](O[C@@H]2O[C@@H](CO)[C@H](O)C(O[C@@H](CC3CCCCC3)C(=O)O)C2NC(C)=O)[C@@H]1O[C@@H]1OC(C)[C@@H](O)[C@H](O)C1O` (stereo partly drawn) [Compound 33], the IC50 worked out at 2120 nM.

`CCC1CC(C(=O)NCCNC(=O)CCC(=O)O)C[C@@H](O[C@@H]2O[C@@H](CO)[C@H](O)C(O[C@@H](CC3CCCCC3)C(=O)O)C2NC(C)=O)[C@@H]1O[C@@H]1OC(C)[C@@H](O)[C@H](O)C1O` (stereo partly drawn) [Compound 35] yielded an IC50 of 720 nM.

`CCC1CC(C(=O)NCCNC(=O)CCCC(=O)O)C[C@@H](O[C@@H]2O[C@@H](CO)[C@H](O)C(O[C@@H](CC3CCCCC3)C(=O)O)C2NC(C)=O)[C@@H]1O[C@@H]1OC(C)[C@@H](O)[C@H](O)C1O` (stereo partly drawn) [Compound 36] gave an IC50 of 510 nM.

Take `CCC1CC(C(=O)NCCNC(=O)CCOCCOCCNC(=O)c2cn(C(COS(=O)(=O)O)(COS(=O)(=O)O)COS(=O)(=O)O)nn2)C[C@@H](O[C@@H]2O[C@@H](CO)[C@H](O)C(O[C@@H](CC3CCCCC3)C(=O)O)C2NC(C)=O)[C@@H]1O[C@@H]1OC(C)[C@@H](O)[C@H](O)C1O` (stereo partly drawn) [Compound 46]: the IC50 turned out to be 192 nM.
